In assay [1] the target is T1, (α3β4)2α3 nAChR (Homo sapiens, UniProt P30926+P32297).
The target in a further assay is β3-α6-β2-α4-β2 nAChR (Homo sapiens, UniProt P17787+P43681+Q15825). Put plainly: cell-based.
For assay [2], the target named is T2, α4β2α5 nAChR (Homo sapiens, UniProt P17787+P30532+P43681).
Assay [3] has as its target T3, (α4β2)2α4 nAChR (Homo sapiens, UniProt P17787+P43681). Put plainly: cell-based. As to conditions: read-out: ACh EC90.
Assay [4] deals with T4, α7 nAChR (Homo sapiens, UniProt P36544). The format is cell-based.
Assay [5] addresses T5, (α3β4)2β4 nAChR (Homo sapiens, UniProt P30926+P32297).
The target in assay [6] is T6, (α3β2)2β2 nAChR (Homo sapiens, UniProt P17787+P32297). The assay is described as follows: cell-based.
Assay [7] deals with T2, α4β2α5 nAChR. Put plainly: cell-based. The conditions noted are these: read-out: ACh EC90.
In assay [8] the target is T4, α7 nAChR. Put plainly: cell-based. The format is cell-based.
In assay [9] the target is T7, (α4β2)2β2 nAChR (Homo sapiens, UniProt P17787+P43681). The assay is described as follows: cell-based.
Assay [10] has as its target T4, α7 nAChR. Put plainly: cell-based. It is filed as cell-based. The source holds these as a separate data set.
The target in assay [11] is T5, (α3β4)2β4 nAChR. The assay is described as follows: cell-based. The conditions noted are these: read-out: % Max Inhibition (95% CI).
The target in assay [12] is T6, (α3β2)2β2 nAChR. The assay is described as follows: cell-based. The conditions noted are these: read-out: % Max Inhibition (95% CI).
The target of assay [13] is T2, α4β2α5 nAChR. Put plainly: cell-based.
A further assay addresses (α3β2)2α3 nAChR (Homo sapiens, UniProt P17787+P32297). Put plainly: cell-based. As to conditions: read-out: % Max Inhibition (95% CI).
Assay [14] deals with T7, (α4β2)2β2 nAChR. Put plainly: cell-based. As to conditions: read-out: % Max Inhibition (95% CI).
The target in assay [15] is T1, (α3β4)2α3 nAChR. The assay is described as follows: cell-based. The conditions noted are these: read-out: % Max Inhibition (95% CI).
The next assay has as its target α6/α3β2β3 nAChR (Homo sapiens, UniProt P17787+P32297+Q05901+Q15825). Put plainly: cell-based.
The target in assay [16] is T3, (α4β2)2α4 nAChR. The assay is described as follows: cell-based.
Where [17] appears, read: read-out: % Max Inhibition (95% CI).

The values below come from PMC11148329 (Frontiers in Cellular and Infection Microbiology, 2024).

Where “and” joins values, the source holds several entries; their conditions need not be identical. Equal values may be shown once. Read-outs that look alike come from different tables or passages of the source.

T6 sequence (P32297 32-505 limits assumed): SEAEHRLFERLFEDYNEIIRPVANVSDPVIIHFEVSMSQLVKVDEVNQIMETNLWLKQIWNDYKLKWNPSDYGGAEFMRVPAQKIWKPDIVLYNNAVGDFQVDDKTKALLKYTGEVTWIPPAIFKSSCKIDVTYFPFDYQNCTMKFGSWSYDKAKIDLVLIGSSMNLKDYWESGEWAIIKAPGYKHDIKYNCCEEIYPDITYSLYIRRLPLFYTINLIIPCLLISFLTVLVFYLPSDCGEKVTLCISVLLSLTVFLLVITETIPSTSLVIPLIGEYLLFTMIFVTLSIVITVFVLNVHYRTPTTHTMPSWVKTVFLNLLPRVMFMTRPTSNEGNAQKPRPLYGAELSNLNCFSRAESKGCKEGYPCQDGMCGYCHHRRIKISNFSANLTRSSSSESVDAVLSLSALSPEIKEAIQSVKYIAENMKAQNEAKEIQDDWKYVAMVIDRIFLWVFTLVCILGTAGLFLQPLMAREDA
T6 sequence (P17787 26-502 limits assumed): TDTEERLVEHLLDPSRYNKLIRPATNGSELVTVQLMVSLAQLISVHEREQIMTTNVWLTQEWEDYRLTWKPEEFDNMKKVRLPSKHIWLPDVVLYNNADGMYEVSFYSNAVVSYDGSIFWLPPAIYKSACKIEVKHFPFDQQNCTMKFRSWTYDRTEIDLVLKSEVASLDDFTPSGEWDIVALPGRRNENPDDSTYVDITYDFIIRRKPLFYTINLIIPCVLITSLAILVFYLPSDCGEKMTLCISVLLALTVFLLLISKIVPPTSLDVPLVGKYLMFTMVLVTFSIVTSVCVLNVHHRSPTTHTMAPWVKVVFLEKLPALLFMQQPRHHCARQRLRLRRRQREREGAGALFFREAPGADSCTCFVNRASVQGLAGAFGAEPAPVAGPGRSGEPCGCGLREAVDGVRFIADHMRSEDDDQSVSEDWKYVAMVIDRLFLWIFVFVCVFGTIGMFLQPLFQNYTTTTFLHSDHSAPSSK
T3 sequence (P43681 29-627 limits assumed): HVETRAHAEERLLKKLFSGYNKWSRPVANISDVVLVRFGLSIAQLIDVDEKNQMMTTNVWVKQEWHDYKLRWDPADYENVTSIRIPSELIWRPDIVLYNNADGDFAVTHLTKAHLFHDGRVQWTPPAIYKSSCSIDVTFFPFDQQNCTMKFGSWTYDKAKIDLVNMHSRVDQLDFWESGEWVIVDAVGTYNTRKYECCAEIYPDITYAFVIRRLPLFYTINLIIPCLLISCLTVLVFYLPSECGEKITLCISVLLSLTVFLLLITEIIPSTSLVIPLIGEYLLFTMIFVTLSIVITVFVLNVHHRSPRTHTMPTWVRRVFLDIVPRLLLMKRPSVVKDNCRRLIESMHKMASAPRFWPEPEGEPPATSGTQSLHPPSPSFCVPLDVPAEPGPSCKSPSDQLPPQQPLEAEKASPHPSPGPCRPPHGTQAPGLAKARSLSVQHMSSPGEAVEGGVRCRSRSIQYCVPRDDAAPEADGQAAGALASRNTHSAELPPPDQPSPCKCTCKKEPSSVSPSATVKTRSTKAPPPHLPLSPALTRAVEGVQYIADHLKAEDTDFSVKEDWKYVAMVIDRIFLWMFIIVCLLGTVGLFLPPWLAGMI
T3 sequence (P17787 26-502 limits assumed): as the sequence (P17787 26-502 limits assumed) above
T2 sequence (P43681 29-627 limits assumed): as the sequence (P43681 29-627 limits assumed) above
T2 sequence (P17787 26-502 limits assumed): as the sequence (P17787 26-502 limits assumed) above
T2 sequence (P30532 23-468 partner limits assumed): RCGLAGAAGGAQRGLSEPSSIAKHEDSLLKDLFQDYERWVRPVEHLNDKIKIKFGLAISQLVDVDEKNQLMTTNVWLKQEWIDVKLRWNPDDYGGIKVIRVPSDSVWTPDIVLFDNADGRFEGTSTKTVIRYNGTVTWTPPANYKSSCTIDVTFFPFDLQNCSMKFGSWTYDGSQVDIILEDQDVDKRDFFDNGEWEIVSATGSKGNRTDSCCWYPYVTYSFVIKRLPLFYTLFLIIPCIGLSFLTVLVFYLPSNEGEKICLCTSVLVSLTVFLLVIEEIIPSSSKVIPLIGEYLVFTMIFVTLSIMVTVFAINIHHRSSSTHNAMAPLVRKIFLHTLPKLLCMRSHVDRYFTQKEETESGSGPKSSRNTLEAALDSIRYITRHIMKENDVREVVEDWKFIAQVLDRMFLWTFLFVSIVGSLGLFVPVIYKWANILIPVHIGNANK
T7 sequence (P43681 27-627 limits assumed): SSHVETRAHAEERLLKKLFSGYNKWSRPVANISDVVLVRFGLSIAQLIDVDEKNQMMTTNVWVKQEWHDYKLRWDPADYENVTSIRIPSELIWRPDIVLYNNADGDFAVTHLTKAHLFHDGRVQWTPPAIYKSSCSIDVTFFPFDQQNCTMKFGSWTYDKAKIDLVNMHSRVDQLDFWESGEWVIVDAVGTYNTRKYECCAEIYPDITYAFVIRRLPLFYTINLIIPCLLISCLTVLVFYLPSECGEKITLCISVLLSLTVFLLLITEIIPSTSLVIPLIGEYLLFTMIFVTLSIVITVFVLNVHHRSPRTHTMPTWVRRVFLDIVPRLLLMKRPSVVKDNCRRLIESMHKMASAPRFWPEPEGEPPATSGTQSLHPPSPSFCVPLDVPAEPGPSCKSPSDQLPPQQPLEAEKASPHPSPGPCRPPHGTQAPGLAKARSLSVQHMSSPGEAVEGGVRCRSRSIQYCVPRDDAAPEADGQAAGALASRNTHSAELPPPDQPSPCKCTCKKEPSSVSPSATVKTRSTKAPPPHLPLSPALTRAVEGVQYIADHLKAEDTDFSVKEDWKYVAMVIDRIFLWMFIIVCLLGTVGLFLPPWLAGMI
T7 sequence (P17787 26-502 limits assumed): as the sequence (P17787 26-502 limits assumed) above

Usually EC90 stands for the concentration at which the effect reaches the 90% level. Consider `CC(=O)OCC[N+](C)(C)C` [ACh, acetylcholine], for which the “NH (1) (95% CI)” value at (α3β4)2α3 nAChR [1] is 1.9 (1.7 – 2.1); on β3-α6-β2-α4-β2 nAChR, 0.77 (0.69 – 0.85); on α4β2α5 nAChR [2] it was 0.90 (0.82 – 0.99); on α7 nAChR [4], 1.6 (1.4 – 1.9); at (α3β4)2β4 nAChR [5], 1.0 (0.92 – 1.2); on (α3β2)2β2 nAChR [6] it was 0.95 (0.84 – 1.1). In addition, the “NH (1) (95% CI)” value at (α4β2)2β2 nAChR [9] was 0.85 (0.76 – 0.95). The EC90 at β3-α6-β2-α4-β2 nAChR (read-out: ACh EC90) worked out at 40 µM; at (α4β2)2α4 nAChR [3], 316 µM; on α7 nAChR [4] (read-out: ACh EC90) it was 1260 µM; at (α3β2)2β2 nAChR [6] (read-out: ACh EC90), 316 µM; at α4β2α5 nAChR [7] it was 20 µM; on (α4β2)2β2 nAChR [9] (read-out: ACh EC90), 100 µM. In addition, the “NH (95% CI) of ACh curve, drug treatment none” value on α7 nAChR [8] was 1.1 (1.0 - 1.2).
One may read the IC50 as the point on the concentration scale where inhibition reaches its midpoint. Regarding `CCN1C[C@]2(COC(=O)c3ccccc3N3C(=O)C[C@H](C)C3=O)CC[C@H](OC)[C@@]34[C@@H]5C[C@H]6[C@H](OC)[C@@H]5[C@](O)(C[C@@H]6OC)[C@@](O)([C@@H](OC)[C@H]23)[C@@H]14` [MLA, Methyllycaconitine], on α7 nAChR [10], the “block of ACh EC90 response by MLA” value is “prevented α7 nAChR activation”. For the same compound, on α7 nAChR [8], the “NH (95% CI) of ACh curve with co-applied MLA” value was 0.9 (0.8 - 1.1) and 1.1 (0.9 - 1.2). For the same compound, at α7 nAChR [8] (IC50 (95% CI): ACh apparent potency with co-applied MLA), the 50% inhibitory concentration (IC50) is 330 µM and 412 µM.
For orientation: inhibition means the share of the control response that was lost under treatment. With `CC[C@H](C)[C@H](NC(=O)[C@H](CC(=O)O)NC(=O)[C@H](CS)NC(=O)[C@H](CO)NC(=O)[C@@H](NC(=O)CNC(=O)[C@H](CC(C)C)NC(=O)[C@H](CCCNC(=N)N)NC(=O)[C@@H]1CCCN1C(=O)[C@H](CC(N)=O)NC(=O)[C@H](CCC(=O)O)NC(=O)[C@@H]1CCCN1C(=O)[C@H](CCSC)NC(=O)[C@H](Cc1c[nH]c2ccccc12)NC(=O)[C@@H](NC(=O)[C@@H](NC(=O)[C@@H](N)Cc1ccc(O)cc1)[C@@H](C)O)[C@@H](C)CC)[C@@H](C)O)C(=O)N[C@@H](Cc1ccccc1)C(=O)N[C@H](C(=O)N[C@@H](CC(N)=O)C(=O)N[C@@H](CO)C(=O)N[C@@H](CCCNC(=N)N)C(=O)NCC(=O)N[C@@H](CCCCN)C(=O)N[C@@H](CCCNC(=N)N)C(=O)N[C@@H](C)C(=O)N[C@@H](CO)C(=O)N[C@@H](CCCCN)C(=O)NCC(=O)O)[C@@H](C)O` [RVG peptide], the inhibition at 1000 µM on (α3β4)2β4 nAChR [11] came to 22%; at (α3β2)2β2 nAChR [12], 57%; on α4β2α5 nAChR [13] (setting [17]) it was 67%; on (α3β2)2α3 nAChR, 67%; at (α4β2)2β2 nAChR [14] it was 46%; at (α3β4)2α3 nAChR [15] it was 49%. The inhibition at 1000 µM was 82% on α6/α3β2β3 nAChR (setting [17]) and 76% on (α4β2)2α4 nAChR [16] (setting [17]). In addition, the concentration for half-maximal inhibition (IC50) is 340 µM at α4β2α5 nAChR [13]; 300 µM against α6/α3β2β3 nAChR; 25 µM at α7 nAChR [10]; 270 µM on (α4β2)2α4 nAChR [16] (IC50 (95% CI)); 220 to 340 µM against (α4β2)2α4 nAChR [16] (IC50, 95% CI). Further, the “% Max Inhibition of ACh EC90 (95% CI)” value on α7 nAChR [10] is on record as 98 (97 – 99) %.
